# How the values were obtained:
# Type in all cases: physicochemical
# [1] = Release experiment: nicotine released from NPR (16%) in water with 1 equivalent of AlCl3 (Example 6E); conditions: 1 equivalent AlCl3, water, nicotine 28 mg/L, 25 degrees Celsius, 150 rpm, HPLC
# Experimental: The release experiment was performed by adding NPR (16%) and 1 equivalent of AlCl3 to a volume of water corresponding to a nicotine concentration of 28 mg/L. The equivalents are relative to nicotine. The temperature of the water was 25 degrees Celsius throughout the experiment and stirring of 150 rpm was applied throughout the experiment. pH was measured at experiment start and end. The pH was in all experiments below 7.0 at both the start and end of the experiment.
# (§1) A relative low nicotine concentration is used in order to reduce the impact of equilibrium on both the release rate and effective release of nicotine from the ion-exchange resin.
# (§2) Samples were taken out at varying timepoints and analyzed for nicotine content using standard HPLC. The result is presented as percentage of nicotine released.
# [2] = Release experiment: nicotine released from nicotine premixes of varying nicotine content with 1 equivalent of CaCl2 (Example 6D); conditions: nicotine premix, 1 equivalent CaCl2, water, nicotine 28 mg/L, 25 degrees Celsius, 150 rpm, HPLC
# Experimental: The release experiment was performed by adding nicotine premix having varying content of nicotine and 1 equivalent of CaCl2 to a volume of water, whereby a corresponding nicotine concentration of 28 mg/L is obtained. The equivalent of CaCl2 is relative to nicotine. The temperature of the water was 25 degrees Celsius throughout the experiment and stirring of 150 rpm was applied throughout the experiment. pH was measured at experiment start and end. The pH was in all experiments below 7.0 at both the start and end of the experiment.
# as §1, §2
# [3] = Release experiment: nicotine released from NPR (16%) in water with varying equivalents of CaCl2 (Example 6B); conditions: nicotine 28 mg/L, 25 degrees Celsius, 100 rpm, HPLC
# Experimental: The release experiment was performed by adding NPR (16%) and varying equivalent of CaCl2 to a volume of water corresponding to a nicotine concentration of 28 mg/L. The equivalents of CaCl2 are relative to nicotine. The temperature of the water was 25 degrees Celsius throughout the experiment and stirring of 100 rpm was applied throughout the experiment. pH was measured at experiment start and end. The pH was in all experiments below 7.0 at both the start and end of the experiment.
# as §1, §2
# [4] = Release experiment: nicotine released from NPR (16%) in water with varying salts (CaCl2, NaCl) and equivalents (Example 6A); conditions: NPR (16%) in 900 mL water, nicotine 28 mg/L, 25 degrees Celsius, 100 rpm, HPLC
# [5] = Release experiment: nicotine released from NPR (16%) in water with varying equivalents of MgCl2 (Example 6C); conditions: nicotine 28 mg/L, 25 degrees Celsius, 100 rpm, HPLC
# Experimental: The release experiment was performed by adding NPR (16%) and varying equivalents of MgCl2 to a volume of water corresponding to a nicotine concentration of 28 mg/L. The equivalents of MgCl2 are relative to nicotine. The temperature of the water was 25 degrees Celsius throughout the experiment and stirring of 100 rpm was applied throughout the experiment. pH was measured at experiment start and end. The pH was in all experiments below 7.0 at both the start and end of the experiment.
# as §1, §2
compound,measurement,setting,value
[Cl][Al]([Cl])[Cl] [AlCl3],effect of AlCl3 on release of nicotine from NPR,[1],significantly increases the release of nicotine
[Ca+2].[Cl-].[Cl-] [CaCl2],effect of CaCl2 on release of nicotine from premixes,[2],significantly increases the release of nicotine
same,effect of CaCl2 on release of nicotine from NPR,[3],significantly increases the release of nicotine
same,effect of the salt on release of nicotine from NPR,[4],significantly increases the release of nicotine
[Cl-].[Cl-].[Mg+2] [MgCl2],effect of MgCl2 on release of nicotine from NPR,[5],significantly increases the release of nicotine
"[Cl-].[Na+] [NaCl, reference compound]",effect of the salt on release of nicotine from NPR,[4],much lower effect on the release of nicotine

# From US20220151292A1, “NICOTINE POUCH COMPOSITION” (NCP NextGen A/S, priority 2020, published 2022)
